One block for each molecule: values may come before it.
What was measured:
HpMTAN = target: T1, HpMTAN (Helicobacter pylori, UniProt Q9ZMY2); experiment: Inhibition assay of HpMTAN; assay type: biochemical; conditions: for preference for HpMTAN (specificity ratio Kd Hs/Hp): affinity for human MTAP relative to HpMTAN; for binding to the catalytic site of HpMTAN: at concentrations of 5 μM inhibitor
T1 sequence (Q9ZMY2 1-230): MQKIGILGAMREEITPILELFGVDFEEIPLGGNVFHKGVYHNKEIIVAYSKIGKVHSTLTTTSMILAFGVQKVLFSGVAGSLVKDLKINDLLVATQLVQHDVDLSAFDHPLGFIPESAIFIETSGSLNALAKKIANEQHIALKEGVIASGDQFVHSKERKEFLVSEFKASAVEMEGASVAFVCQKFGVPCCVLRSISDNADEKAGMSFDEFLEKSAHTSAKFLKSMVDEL

human MTAP = target: T2, human MTAP (Homo sapiens, UniProt Q13126); experiment: Inhibition assay of MTAP; assay type: biochemical; conditions: for binding to the catalytic site of MTAP: at concentrations of 5 μM inhibitor
T2 sequence (Q13126 1-283): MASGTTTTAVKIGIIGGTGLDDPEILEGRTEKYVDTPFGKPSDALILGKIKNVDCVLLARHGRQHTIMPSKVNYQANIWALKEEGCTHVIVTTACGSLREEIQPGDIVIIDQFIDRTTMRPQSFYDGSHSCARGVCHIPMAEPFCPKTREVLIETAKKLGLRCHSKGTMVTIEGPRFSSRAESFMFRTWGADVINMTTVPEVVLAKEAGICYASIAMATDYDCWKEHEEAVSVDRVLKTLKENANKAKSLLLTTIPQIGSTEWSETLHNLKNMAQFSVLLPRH

Compound: CSC[C@H]1CN(Cc2c[nH]c3c(N)nccc23)C[C@@H]1O [compound 8, 3-deazaMTDIA]
- increase of dissociation constant relative to MTDIA (1), HpMTAN (HpMTAN; compared with 1 (86 pM)): > 100 fold
- increase of dissociation constant relative to MTDIA (1), MTAP (human MTAP; compared with 1 (86 pM)): > 100 fold

Compound: Nc1ncnc2c(CN3C[C@H](CSCCCc4cn(Cc5ccccc5)nn4)[C@@H](O)C3)c[nH]c12 [compound 32]
- Kd (HpMTAN): 0.026 to 0.055 nM

Compound: O=c1[nH]ccc2c(CN3C[C@H](CO)[C@@H](O)C3)c[nH]c12 [compound 34]
- binding to the catalytic site of HpMTAN (HpMTAN): eliminates binding
- binding to the catalytic site of MTAP (human MTAP): eliminates binding

Compound: CSC[C@H]1CN(Cc2c[nH]c3c(=O)[nH]ccc23)C[C@@H]1O [compound 35]
- binding to the catalytic site of HpMTAN (HpMTAN): eliminates binding
- binding to the catalytic site of MTAP (human MTAP): eliminates binding

More lines, now with the values ahead:

- Kd (HpMTAN): 0.026 to 0.055 nM
Compound: CCCCn1cc(CCCSC[C@H]2CN(Cc3c[nH]c4c(N)ncnc34)C[C@@H]2O)nn1 [compound 30]

- Kd (HpMTAN): 0.026 to 0.055 nM
- preference for HpMTAN (specificity ratio Kd Hs/Hp) (HpMTAN): 12- to 36 fold
Compound: C#CCSC[C@H]1CN(Cc2c[nH]c3c(N)ncnc23)C[C@@H]1O [compound 15]

- Kd (HpMTAN): 0.026 to 0.055 nM
- preference for HpMTAN (specificity ratio Kd Hs/Hp) (HpMTAN): 12- to 36 fold
Compound: C#CCCCSC[C@H]1CN(Cc2c[nH]c3c(N)ncnc23)C[C@@H]1O [compound 16]
